Measured values published in patent US8940865B2, “Myocardial peptide, preparation method and uses thereof” (Dalian Zhen-Ao Pharmaceutical Co, Ltd., priority 2008, dated 2015).

Key:
[1] = test system: primary culture myocardium cell damaged by adriamycin; assay: Effect of CMPC against adriamycin injury of primary culture myocardium cell (MTT); assay type: cell-based, Neonatal SD rat
Protocol: Remove the fibroblast through differential adhesion and chemistry method, and inoculate myocardium cell on the 96-well plates.
2.1.2 The Against Function of Cmpc to Injury of Adriamycin to Primary Culture Myocardium Cell.
Cell culture method is the same as 2.1.1
Preparation of model: Blank Control Group: cultivating myocardium cell with DMEM-H-15;
Model Group: adding 1 mg/L adriamycin, washing the plate with DMEM-H-15 two times after being cultivated for 1 h, adding DMEM-H-15 for cultivation;
Protective rate=(Ax−Amodel)/(Acontrol−Amodel)×100%;
(Ax, Amode, Acontrol respectively represent Absorbance value of Drug administration groups, Model Group and Blank control group.

[2] = test system: primary culture myocardium cell damaged by hypoxia/reoxygenation; assay: Anti-hypoxia/reoxygenation injury effect on primary culture myocardium cell (MTT); assay type: cell-based, Neonatal SD rat
Description: Take ventricle from Neonatal SD rat, wash with D-Hank's and cut to small pieces, digest with collagenase II to obtain the myocardium cell and fibroblast, which are cultivated with high glucose DMEM (dmem-h-15) culture medium containing 15% fetal bovine serum. Remove the fibroblast through differential adhesion and chemistry method, and inoculate myocardium cell on the 96-well plates.
2.1.3 Anti-Hypoxia/Reoxygenation Injury Effect of CMPC to Primary Culture Myocardium Cell.
Cell cultivation method is the same as that in 2.1.1
Preparation of model: Preparing the model by using the myocardium cell cultured for 48˜72 h, dividing the cell on the culture plate to following groups: Control Group, Model Group, Verapamil Group (2, 0.4, 0.08 mg/l final concentration) and CMPM Group (final concentration of 50, 10, 2, 0.4, 0.08, 0.016, 0.0032 mg/l), 3 wells for every group. Except the Control Group, the other groups are prepared by following method: placing the monolayer myocardium cell on center of culture plate on low glucose medium (containing Verapamil or CMPM with corresponding concentration), then placing the culture plate into the vacuum drying machine, filling nitrogen, and hermetically culturing, causing myocardial injury after oxygen lack for 15 hours, then being cultured for 1 hour by high glucose DMEM medium (95% atmosphere and 5% CO2) to cause reoxygention injury. Measuring the absorbance value at 540 nm by using MTT method, and the same as above, calculating the protective rate to figure out EC50.

[3] = test system: ischemia/reperfusion damaged rat; assay: Preventive administration, ischemia/reperfusion (LAD ligation) rat model; assay type: in vivo, SD rat; details: preventive i.v. 30 min before ligation, Dosage 1.0 mg/kg
Protocol: 70 SD rats (250˜300 g per rat) were taken, wherein, 60 rats were divided into 6 groups evenly and randomly according to weight, every 10 of each group, the remains are kept for replacement of dead animals of each group.
Normal Control Group: carrying out sham operation, threading a silk suture through the left anterior descending coronary artery (LAD) without ligation;
Model Group: intravenous injecting saline solution of 5 ml/kg 30 minutes before ligation, and the preparation of hypoxia/reoxygenation model is the same as Normal Control Group;
Positive Control Group: intravenous injecting Verapamil of 1 ml/kg 30 min before ligation, preparation of the hypoxia/reoxygenation model is the same as Normal Control Group. […]
Preparation of the Model:
(§1) Intraperitoneal injecting 6% Urethane with 20 ml/kg to anaesthetize the animal, fixing the animal on operating table in supine position; being connected with the electrocardiograph to detect the limb II lead electrocardiogram, tracheal intubating and connecting the animal with respirators, taking continuous positive end-expiratory pressure with tidal volume of 6 ml/200 g, frequency of 55/min and breathing ratio of 2:1. Carrying out thoracotomy on the gap between the forth and the fifth ribs of the left border of sternum, separating the ribs and removing the pericardium. Ligating at the left anterior descending coronary artery by using 6/0 silk suture by the sign of left auricle lower margin, and setting a piece of polyethylene pipe with diameter of 1 mm between the ligation silk suture and blood vessel. Ligating the silk suture to press the left anterior descending coronary artery by the polyethylene pipe and cause myocardial ischemia. Taking part of myocardium becoming grey and electrocardiogram S-T segment raising as the sign of that the left anterior descending coronary artery is ligated successfully. Taking out the polyethylene pipe carefully to cause the reperfusion. Verifying the success of reoxygenation by reactive hyperemia of ischemia area and the descending of the raised S-T segment by ½. Reoxygenation for 30 minutes, then sampling blood from abdominal aorta to prepare serum which is used to measure the biochemical index (measuring the content of CK, LDH, MDA, SPD according to the Reagent kits Instruction).
(§2) Rat's heart was taken and after being blooded, the residual blood in the ventricle was cleaned by normal saline to weight the weight of whole heart. Fat was removed, the heart was crosscut into 4˜5 pieces and was put into a tube, to be carried out NBT dye at 37° C. (dying the normal tissue rather than the ischemic tissue), taking photographs. The ischemic area of the myocardium was cut to take a weighing, and then the myocardial infarct size (MIS) was calculated by the ratio of weight of the ischemic area of the myocardium to whole heart weight, which was present by percentage.

[4] = test system: ischemia/reperfusion damaged rat; assay: Therapeutic administration, ischemia/reperfusion (LAD ligation) rat model; assay type: in vivo, SD rat; details: therapeutic i.v. 5 minutes after ligation, Dosage 1.0 mg/kg
Protocol: as §1, §2
The drug was intravenously injured on the tail 5 minutes after ligation of LAD, then reperfusion was carried out for 30 min 30 minutes after ligation of LAD. Heart was taken after sampling blood from abdominal aorta. The biochemical index and the myocardial infarction size were measure by using the above method.

Compound: COc1ccc(CCN(C)CCCC(C#N)(c2ccc(OC)c(OC)c2)C(C)C)cc1OC (stereo not shown) [Positive Control Group, Verapamil, reference compound]
- % (protective rate) ([1]; Plate 1, Dosage 0.08 mg/L): 31.53%
- A540 ([1]; Plate 1, Dosage 0.08 mg/L): 0.694 ± 0.110
- % (protective rate) ([1]; Plate 1, Dosage 0.4 mg/L): 50.23%
- A540 ([1]; Plate 1, Dosage 0.4 mg/L): 0.714 ± 0.021
- % (protective rate) ([1]; Plate 1, Dosage 2 mg/L): 46.83%
- A540 ([1]; Plate 1, Dosage 2 mg/L): 0.710 ± 0.099
- % (protective rate) ([1]; Plate 2, Dosage 0.08 mg/L): 30.45%
- A540 ([1]; Plate 2, Dosage 0.08 mg/L): 0.749 ± 0.031
- % (protective rate) ([1]; Plate 2, Dosage 0.4 mg/L): 30.29%
- A540 ([1]; Plate 2, Dosage 0.4 mg/L): 0.749 ± 0.050
- % (protective rate) ([1]; Plate 2, Dosage 2 mg/L): 46.68%
- A540 ([1]; Plate 2, Dosage 2 mg/L): 0.767 ± 0.045
- % (protective rate) ([1]; Plate 3, Dosage 0.08 mg/L): 30.09%
- A540 ([1]; Plate 3, Dosage 0.08 mg/L): 0.755 ± 0.021
- % (protective rate) ([1]; Plate 3, Dosage 0.4 mg/L): 37.28%
- A540 ([1]; Plate 3, Dosage 0.4 mg/L): 0.770 ± 0.012
- % (protective rate) ([1]; Plate 3, Dosage 2 mg/L): 36.18%
- A540 ([1]; Plate 3, Dosage 2 mg/L): 0.768 ± 0.013
- % (protective rate) ([2]; Plate 1, Dosage 0.08 mg/L): 14.16%
- A540 ([2]; Plate 1, Dosage 0.08 mg/L): 0.524 ± 0.036
- % (protective rate) ([2]; Plate 1, Dosage 0.4 mg/L): 20.15%
- A540 ([2]; Plate 1, Dosage 0.4 mg/L): 0.541 ± 0.029
- % (protective rate) ([2]; Plate 1, Dosage 2 mg/L): 12.87%
- A540 ([2]; Plate 1, Dosage 2 mg/L): 0.520 ± 0.060
- % (protective rate) ([2]; Plate 2, Dosage 0.08 mg/L): 23.85%
- A540 ([2]; Plate 2, Dosage 0.08 mg/L): 0.553 ± 0.031
- % (protective rate) ([2]; Plate 2, Dosage 0.4 mg/L): 33.18%
- A540 ([2]; Plate 2, Dosage 0.4 mg/L): 0.579 ± 0.028
- % (protective rate) ([2]; Plate 2, Dosage 2 mg/L): 29.63%
- A540 ([2]; Plate 2, Dosage 2 mg/L): 0.569 ± 0.029
- % (protective rate) ([2]; Plate 3, Dosage 0.08 mg/L): 30.62%
- A540 ([2]; Plate 3, Dosage 0.08 mg/L): 0.787 ± 0.020
- % (protective rate) ([2]; Plate 3, Dosage 0.4 mg/L): 35.44%
- A540 ([2]; Plate 3, Dosage 0.4 mg/L): 0.795 ± 0.022
- % (protective rate) ([2]; Plate 3, Dosage 2 mg/L): 41.37%
- A540 ([2]; Plate 3, Dosage 2 mg/L): 0.805 ± 0.018
- MIS (myocardial infarct size) ([3]; ischemic area weight/whole heart weight): 4.19 ± 0.70 %
- CK ([3]; rat serum): 2.087 ± 0.432 U/ml
- LDH ([3]; rat serum): 7376.09 ± 784.64 U/L
- MDA ([3]; rat serum): 4.755 ± 0.718 nmol/mL
- SOD ([3]; rat serum): 135.63 ± 7.878 U/ml
- CK ([4]; rat serum): 1.777 ± 0.389 U/ml
- LDH ([4]; rat serum): 6791.96 ± 570.85 U/L
- MDA ([4]; rat serum): 4.960 ± 0.338 nmol/mL
- SOD ([4]; rat serum): 140.36 ± 14.00 U/ml
- MIS (myocardial infarct size) [4]: 4.07 ± 1.56 %
